Experimental data from patent publication US7211576B2, “Diaminothiazoles” (Hoffmann-La Roche Inc., priority 2004, dated 2007).

Legend:
Type in all cases: biochemical
human cyclin D1-CDK4 = human cyclin D1-CDK4 (Homo sapiens, UniProt P11802); test: FlashPlate kinase assay, cyclin D1-CDK4; conditions: Rb protein substrate, 1 μM ATP, 33P-ATP, 30 minutes room temperature; read-out: CDK4 IC50
Method: To determine inhibition of Cdk4, Cdk2 and Cdk1 activity, kinase assays were conducted using FlashPlate™ assays (NEN™-Life Science Products). FlashPlate assays were performed using recombinant human cyclin B-CDK1, human cyclin E-CDK2 or human cyclin D1-CDK4 complexes. GST-cyclinE (GST-cycE), CDK2, GST-cyclinB (GST-cycB), CDK1, GST-CDK4 and cyclin D1 (cycD1) cDNA clones in baculovirus vectors were provided by Dr. W. Harper at the Baylor College of Medicine, Houston, Tex.
(§1) The expression of the 62Kd protein was under the control of an IPTG inducible promoter in an M15 E. coli strain. Cells were lysed by sonication and purification was carried out by binding lysates at pH 8.0 to a Ni-chelated agarose column pretreated with 1 mM imidazole. The resin was then washed several times with incrementally decreasing pH buffers to pH 6.0, and eluted with 500 mM imidazole. Eluted protein was dialysed against 20 mM HEPES pH 7.5, 30% glycerol, 200 mM NaCl, and 1 mM DTT. Purified Rb fusion protein stocks were quantitated for protein concentration, aliquoted, and stored at −70° C.
(§2) For all three kinase assays reported herein, 96-well FlashPlates were coated with Rb protein at 10 μg/ml, using 100 μl per well. Plates were incubated at 4° C. overnight or at room temperature for 3 hours on a shaker. To control for nonspecific phosphorylation, one row of wells was coated with 100 μl/well coating buffer (20 mM HEPES, 0.2 M NaCl). Plates were then washed twice with wash buffer (0.01% Tween 20 in phosphate-buffered saline). Compounds to be tested (“test compounds”) were added to the wells at 5× final concentration. Reactions were initiated by immediate addition of 40 μl reaction mix (25 mM HEPES, 20 mM MgCl2, 0.002% Tween 20, 2 mM DTT, 1 μM ATP, 4 nM ^33P-ATP) and a sufficient amount of enzyme to give counts that were at least 10-fold above background. Plates were incubated at room temperature on a shaker for 30 minutes. Plates were washed four times with the wash buffer, sealed, and counted on the TopCount scintillation counter (Packard Instrument Co., Downers Grove, Ill.]. The percent inhibition of Rb phosphorylation, which is a measure of the inhibition of CDK activity, was determined according to the following formula:
[formula] where “test compound” refers to the average counts per minute of the test duplicates, “nonspecific” refers to the average counts per minute when no CyclinD/Cdk4, etc., was added, and “total” refers to the average counts per minute when no compound was added.

human cyclin E-CDK2 = human cyclin E-CDK2 (Homo sapiens, UniProt P24941); test: FlashPlate kinase assay, cyclin E-CDK2; conditions: Rb protein substrate, 1 μM ATP, 33P-ATP, 30 minutes room temperature
Method: (§3) To determine inhibition of Cdk4, Cdk2 and Cdk1 activity, kinase assays were conducted using FlashPlate™ assays (NEN™-Life Science Products). FlashPlate assays were performed using recombinant human cyclin B-CDK1, human cyclin E-CDK2 or human cyclin D1-CDK4 complexes. GST-cyclinE (GST-cycE), CDK2, GST-cyclinB (GST-cycB), CDK1, GST-CDK4 and cyclin D1 (cycD1) cDNA clones in baculovirus vectors were provided by Dr. W. Harper at the Baylor College of Medicine, Houston, Tex. Proteins were co-expressed in High Five™ insect cells and the complex was purified on glutathione Sepharose resin (Pharmacia, Piscataway, N.J.) as previously described (Harper, J. W. et al. Cell 1993, 75, 805–816). A 6×-Histidine tagged truncated form of retinoblastoma (Rb) protein (amino acid 386–928) was used as the substrate for the cycD1-CDK4, cycB-CDK1 and the cycE-CDK2 assays (the expression plasmid was provided by Dr. Veronica Sullivan, Department of Molecular Virology, Roche Research Centre, Welwyn Garden City, United Kingdom). The Rb protein is a natural substrate for phosphorylation by CDK4, CDK2 and CDK1 (see Herwig and Strauss Eur. J. Biochem. Vol. 246 (1997) pp. 581–601 and the references cited therein).
as §1, §2
(§4) [formula] where “test compound” refers to the average counts per minute of the test duplicates, “nonspecific” refers to the average counts per minute when no CyclinD/Cdk4, etc., was added, and “total” refers to the average counts per minute when no compound was added. The IC50 value is the concentration of test compound that reduces by 50% the protein-kinase induced incorporation of the radiolabel under the test conditions described.

human cyclin B-CDK1 = human cyclin B-CDK1 (Homo sapiens, UniProt P06493); test: FlashPlate kinase assay, cyclin B-CDK1; conditions: Rb protein substrate, 1 μM ATP, 33P-ATP, 30 minutes room temperature
Method: as §3, §1, §2, §4

human cyclin B-CDK1, sequence (P06493 whole entry): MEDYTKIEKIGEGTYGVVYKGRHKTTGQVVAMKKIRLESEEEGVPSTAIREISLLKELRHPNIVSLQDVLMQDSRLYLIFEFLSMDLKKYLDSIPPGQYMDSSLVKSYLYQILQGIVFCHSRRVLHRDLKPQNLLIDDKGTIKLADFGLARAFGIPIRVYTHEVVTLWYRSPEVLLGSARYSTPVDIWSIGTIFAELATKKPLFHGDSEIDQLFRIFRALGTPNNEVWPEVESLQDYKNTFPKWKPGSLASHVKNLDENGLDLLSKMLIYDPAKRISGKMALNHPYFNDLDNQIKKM
human cyclin B-CDK1, sequence (P14635 whole entry partner): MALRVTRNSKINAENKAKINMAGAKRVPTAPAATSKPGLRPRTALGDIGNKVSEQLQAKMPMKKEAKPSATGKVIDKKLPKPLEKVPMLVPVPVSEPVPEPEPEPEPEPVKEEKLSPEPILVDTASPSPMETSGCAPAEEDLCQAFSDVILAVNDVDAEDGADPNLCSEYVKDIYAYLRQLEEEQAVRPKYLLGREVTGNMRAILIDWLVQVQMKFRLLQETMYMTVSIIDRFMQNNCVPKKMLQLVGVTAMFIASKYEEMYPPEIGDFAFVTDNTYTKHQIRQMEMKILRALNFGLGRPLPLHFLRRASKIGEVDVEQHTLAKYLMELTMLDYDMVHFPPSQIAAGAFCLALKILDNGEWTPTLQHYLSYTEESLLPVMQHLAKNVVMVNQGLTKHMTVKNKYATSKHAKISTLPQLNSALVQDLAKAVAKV
human cyclin D1-CDK4, sequence (P11802 whole entry): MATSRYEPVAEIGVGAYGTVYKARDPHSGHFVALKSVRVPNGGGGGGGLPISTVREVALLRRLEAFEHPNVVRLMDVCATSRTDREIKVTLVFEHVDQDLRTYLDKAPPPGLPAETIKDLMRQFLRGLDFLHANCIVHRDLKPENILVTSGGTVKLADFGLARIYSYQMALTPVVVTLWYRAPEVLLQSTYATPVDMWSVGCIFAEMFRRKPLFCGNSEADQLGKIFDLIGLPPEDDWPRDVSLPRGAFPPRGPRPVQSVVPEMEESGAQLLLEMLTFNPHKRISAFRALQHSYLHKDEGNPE
human cyclin D1-CDK4, sequence (P24385 whole entry partner): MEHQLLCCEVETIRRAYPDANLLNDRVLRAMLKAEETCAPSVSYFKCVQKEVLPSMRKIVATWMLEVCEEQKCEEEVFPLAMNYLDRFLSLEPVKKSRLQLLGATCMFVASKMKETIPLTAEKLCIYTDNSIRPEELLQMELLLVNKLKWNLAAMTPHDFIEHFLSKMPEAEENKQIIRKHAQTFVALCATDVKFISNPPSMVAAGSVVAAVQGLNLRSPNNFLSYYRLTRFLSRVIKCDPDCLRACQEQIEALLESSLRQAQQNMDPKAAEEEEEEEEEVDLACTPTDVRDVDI

| SMILES | IC50 (human cyclin D1-CDK4) | IC50 (human cyclin E-CDK2) | IC50 (human cyclin B-CDK1) |
| --- | --- | --- | --- |
| Nc1nc(Nc2ccc(N3CCC(N4CCCCC4)CC3)cc2)sc1C(=O)c1cccc(O)c1 [Example 65, [4-Amino-2-(4-[1,4′]bipiperidinyl-1′-yl-phenylamino)-thiazol-5-yl]-(3-hydroxy-phenyl)-methanone] | 18 nM | 3390 nM | 1440 nM |
| N#Cc1cccc(C(=O)c2sc(Nc3ccc(N4CCC(N5CCOCC5)CC4)cc3)nc2N)c1 [Example 104, 3-{4-Amino-2-[4-(4-morpholin-4-yl-piperidin-1-yl)-phenylamino]-thiazole-5-carbonyl}-benzonitrile] | 31 nM | 2000 nM | 1280 nM |
| CN(C)C1CCN(c2ccc(Nc3nc(N)c(C(=O)c4cccc(C#N)c4)s3)cc2)CC1 [Example 88, 3-{4-Amino-2-[4-(4-dimethylamino-piperidin-1-yl)-phenylamino]-thiazole-5-carbonyl}-benzonitrile] | 15 nM | 3910 nM | 940 nM |
| Nc1nc(Nc2ccc(N3CCC(N4CCCC4)CC3)cc2)sc1C(=O)c1ccc(F)c(F)c1 [Example 68, {4-Amino-2-[4-(4-pyrrolidin-1-yl-piperidin-1-yl)-phenylamino]-thiazol-5-yl}-(3,4-difluoro-phenyl)-methanone] | 89 nM | 5950 nM | 3850 nM |
| Nc1nc(Nc2ccc(N3CCC(N4CCCC4)CC3)cc2)sc1C(=O)c1ccc(Cl)c([N+](=O)[O-])c1 [Example 71, {4-Amino-2-[4-(4-pyrrolidin-1-yl-piperidin-1-yl)-phenylamino]-thiazol-5-yl}-(4-chloro-3-nitro-phenyl)-methanone] | 162 nM | 4150 nM | 4060 nM |
| Nc1nc(Nc2ccc(N3CCC(N4CCCCC4)CC3)cc2)sc1C(=O)c1ccc(F)c(F)c1 [Example 59, [4-Amino-2-(4-[1,4′]bipiperidinyl-1′-yl-phenylamino)-thiazol-5-yl]-(3,4-difluoro-phenyl)-methanone] | 61 nM | 3090 nM | 4630 nM |
| Nc1nc(Nc2ccc(N3CCC(N4CCCC(O)C4)CC3)cc2)sc1C(=O)c1cc(F)cc(F)c1 (stereo not shown) [Example 73, {4-Amino-2-[4-(3-hydroxy-[1,4′]bipiperidinyl-1′-yl)-phenylamino]-thiazol-5-yl}-(3,5-difluoro-phenyl)-methanone] | 88 nM | 8050 nM | 2590 nM |
| Nc1nc(Nc2ccc(N3CCC(N4CCCCC4)CC3)cc2)sc1C(=O)c1ccc(O)cc1 [Example 29, [4-Amino-2-(4-[1,4′]bipiperidinyl-1′-yl-phenylamino)-thiazol-5-yl]-(4-hydroxy-phenyl)-methanone] | 55 nM | 3990 nM | 1230 nM |
| N#Cc1cccc(C(=O)c2sc(Nc3ccc(N4CCC(N5CCCCC5)CC4)cc3)nc2N)c1 [Example 64, 3-[4-Amino-2-(4-[1,4′]bipiperidinyl-1′-yl-phenlamino)-thiazole-5-carbonyl]-benzonitrile] | 15 nM | 2700 nM | 1280 nM |
| Nc1nc(Nc2ccc(N3CCC(N4CCCCC4)CC3)cc2)sc1C(=O)c1ccc(Cl)c([N+](=O)[O-])c1 [Example 62, [4-Amino-2-(4-[1,4′]bipiperidinyl-1′-yl-phenylamino)-thiazol-5-yl]-(4-chloro-3-nitro-phenyl)-methanone] | 278 nM | 4170 nM | 4210 nM |
| Nc1nc(Nc2ccc(N3CCC(N4CCCCC4)CC3)cc2)sc1C(=O)c1ccc([N+](=O)[O-])cc1 [Example 56, [4-Amino-2-(4-[1,4′]bipiperidinyl-1′-yl-phenylamino)-thiazol-5-yl]-(4-nitro-phenyl)-methanone] | 160 nM | – | 4770 nM |

The remaining lines, values ahead:

| IC50 (human cyclin D1-CDK4) | IC50 (human cyclin E-CDK2) | IC50 (human cyclin B-CDK1) | SMILES |
| --- | --- | --- | --- |
| 39 nM | 1510 nM | 1280 nM | Nc1nc(Nc2ccc(N3CCC(N4CCOCC4)CC3)cc2)sc1C(=O)c1cccc([N+](=O)[O-])c1 [Example 105, {4-Amino-2-[4-(4-morpholin-4-yl-piperidin-1-yl)-phenylamino]-thiazol-5-yl}-(3-nitro-phenyl)-methanone] |
| 29 nM | 4800 nM | 1990 nM | COc1cccc(C(=O)c2sc(Nc3ccc(N4CCC(N5CCOCC5)CC4)cc3)nc2N)c1 [Example 102, {4-Amino-2-[4-(4-morpholin-4-yl-piperidin-1-yl)-phenylamino]-thiazol-5-yl}-(3-methoxy-phenyl)-methanone] |
| 246 nM | 3710 nM | 2900 nM | Nc1nc(Nc2ccc(N3CCC(N4CCCC(O)C4)CC3)cc2)sc1C(=O)c1ccc(Cl)c([N+](=O)[O-])c1 (stereo not shown) [Example 78, {4-Amino-2-[4-(3-hydroxy-[1,4′]bipiperidinyl-1′-yl)-phenylamino]-thiazol-5-yl}-(4-chloro-3-nitro-phenyl)-methanone] |
| 133 nM | 4440 nM | 2990 nM | CN(C)C1CCN(c2ccc(Nc3nc(N)c(C(=O)c4ccc(Cl)c([N+](=O)[O-])c4)s3)cc2)CC1 [Example 87, {4-Amino-2-[4-(4-dimethylamino-piperidin-1-yl)-phenylamino]-thiazol-5-yl}-(4-chloro-3-nitro-phenyl)-methanone] |
| 35 nM | 550 nM | 450 nM | Nc1nc(Nc2ccc(N3CCC(N4CCOCC4)CC3)cc2)sc1C(=O)c1cccc(F)c1 [Example 99, {4-Amino-2-[4-(4-morpholin-4-yl-piperidin-1-yl)-phenylamino]-thiazol-5-yl}-(3-fluoro-phenyl)-methanone] |
| 37 nM | 4060 nM | 1180 nM | Nc1nc(Nc2ccc(N3CCC(N4CCCC4)CC3)cc2)sc1C(=O)c1cccc(O)c1 [Example 96, {4-Amino-2-[4-(4-pyrrolidin-1-yl-piperidin-1-yl)-phenylamino]-thiazol-5-yl}-(3-hydroxy-phenyl)-methanone] |
| 52 nM | 4830 nM | 2270 nM | COc1ccc(C(=O)c2sc(Nc3ccc(N4CCC(N5CCOCC5)CC4)cc3)nc2N)cc1[N+](=O)[O-] [Example 106, {4-Amino-2-[4-(4-morpholin-4-yl-piperidin-1-yl)-phenylamino]-thiazol-5-yl}-(4-methoxy-3-nitro-phenyl)-methanone] |
| 98 nM | 2260 nM | 510 nM | CN(C)C1CCN(c2ccc(Nc3nc(N)c(C(=O)c4ccc(Cl)c(Cl)c4)s3)cc2)CC1 [Example 85, {4-Amino-2-[4-(4-dimethylamino-piperidin-1-yl)-phenylamino]-thiazol-5-yl}-(3,4-dichloro-phenyl)-methanone] |
| 122 nM | 9510 nM | 3730 nM | CN(C)C1CCN(c2ccc(Nc3nc(N)c(C(=O)c4ccc(F)c(F)c4)s3)cc2)CC1 [Example 84, {4-Amino-2-[4-(4-dimethylamino-piperidin-1-yl)-phenylamino]-thiazol-5-yl}-(3,4-difluoro-phenyl)-methanone] |
| 124 nM | 8760 nM | – | Nc1nc(Nc2ccc(N3CCC(N4CCCC(O)C4)CC3)cc2)sc1C(=O)c1ccc(Cl)c(Cl)c1 (stereo not shown) [Example 76, {4-Amino-2-[4-(3-hydroxy-[1,4′]bipiperidinyl-1′-yl)-phenylamino]-thiazol-5-yl}-(3,4-dichloro-phenyl)-methanone] |
